In patent publication US8846947B2, “Benzimidazoles and related analogs as sirtuin modulators” (GlaxoSmithKline LLC, priority 2008, dated 2014):

Target: T1, SIRT1 (Homo sapiens, UniProt Q96EB6)
T1 sequence (Q96EB6 1-747): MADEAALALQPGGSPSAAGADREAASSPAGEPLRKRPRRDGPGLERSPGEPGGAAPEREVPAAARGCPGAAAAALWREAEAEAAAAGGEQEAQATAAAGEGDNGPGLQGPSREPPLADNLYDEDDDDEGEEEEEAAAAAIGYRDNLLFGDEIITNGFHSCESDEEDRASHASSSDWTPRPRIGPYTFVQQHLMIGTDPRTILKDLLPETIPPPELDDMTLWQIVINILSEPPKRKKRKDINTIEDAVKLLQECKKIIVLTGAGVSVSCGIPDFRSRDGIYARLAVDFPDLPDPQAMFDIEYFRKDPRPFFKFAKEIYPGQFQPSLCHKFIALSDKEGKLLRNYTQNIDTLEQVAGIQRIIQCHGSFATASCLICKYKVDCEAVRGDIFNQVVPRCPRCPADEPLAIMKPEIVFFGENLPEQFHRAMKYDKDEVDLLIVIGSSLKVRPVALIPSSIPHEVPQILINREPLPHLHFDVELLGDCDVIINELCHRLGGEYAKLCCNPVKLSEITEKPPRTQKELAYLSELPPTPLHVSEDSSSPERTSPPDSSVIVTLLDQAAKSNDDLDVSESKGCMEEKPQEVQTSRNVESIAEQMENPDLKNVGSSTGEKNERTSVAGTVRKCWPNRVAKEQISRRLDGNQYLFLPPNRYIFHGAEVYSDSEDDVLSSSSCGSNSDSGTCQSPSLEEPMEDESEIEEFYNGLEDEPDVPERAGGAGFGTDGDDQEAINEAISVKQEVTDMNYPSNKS
Experiment: Mass spectrometry based SIRT1 deacetylase activation assay (acetylated p53-derived peptide substrate)
Assay type: biochemical
Settings: 0.5 μM peptide substrate, 120 μM βNAD+, 10 nM SIRT1, 25 minutes at 25° C.

Compound	EC1.5	Fold Act. (percent maximum fold activation)
O=C(Nc1cccc(OC[C@H](O)CO)c1)c1cc(F)cc2[nH]c(-c3ccccc3C(F)F)nc12 [Compound 811, (R)-2-(2-(difluoromethyl)phenyl)-N-(3-(2,3-dihydroxypropoxy)phenyl)-6-fluoro-1H-benzo[d]imidazole-4-carboxamide]	A (EC1.5<1.0 uM)	A (Fold activation >200%)
O=C(Nc1cccnc1)c1cncc2nc(-c3ccc(N4CCCC4)cc3C(F)F)[nH]c12 [Compound 812]	A (EC1.5<1.0 uM)	A (Fold activation >200%)
O=C(Nc1ccc(CN2CCCC2)cc1)c1cccc2[nH]c(-c3ccc(F)cc3C(F)(F)F)nc12 [Compound 813]	A (EC1.5<1.0 uM)	A (Fold activation >200%)
Cc1ncccc1-c1nc2c(C(=O)Nc3cccc(CN4CCOCC4)n3)cccc2[nH]1 [Compound 814, 2-(2-methylpyridin-3-yl)-N-(6-(morpholinomethyl)pyridin-2-yl)-1H-benzo[d]imidazole-4-carboxamide]	A (EC1.5<1.0 uM)	A (Fold activation >200%)
Cc1ccc(-c2nc3c(C(=O)Nc4cccc(CN5CCOCC5)n4)cccc3[nH]2)cn1 [Compound 815, 2-(6-methylpyridin-3-yl)-N-(6-(morpholinomethyl)pyridin-2-yl)-1H-benzo[d]imidazole-4-carboxamide]	A (EC1.5<1.0 uM)	A (Fold activation >200%)
Cc1cc(-c2nc3c(C(=O)Nc4cccc(CN5CCOCC5)n4)cccc3[nH]2)ccn1 [Compound 816, 2-(2-methylpyridin-4-yl)-N-(6-(morpholinomethyl)pyridin-2-yl)-1H-benzo[d]imidazole-4-carboxamide]	A (EC1.5<1.0 uM)	A (Fold activation >200%)
O=C(Nc1cccc(CN2CCOCC2)n1)c1cccc2[nH]c(-c3ccccc3C(F)F)nc12 [Compound 817]	A (EC1.5<1.0 uM)	A (Fold activation >200%)
O=C(Nc1cccc(CN2CCOCC2)n1)c1cccc2[nH]c(-c3ccc(F)cc3C(F)F)nc12 [Compound 818]	A (EC1.5<1.0 uM)	A (Fold activation >200%)
O=C(Nc1nc(CN2CCOCC2)cs1)c1cccc2[nH]c(-c3cc(F)cc(F)c3)nc12 [Compound 820]	B (EC1.5 1-25 uM)	A (Fold activation >200%)

Other lines, results leading:

EC1.5	Fold Act. (percent maximum fold activation)	Compound
A (EC1.5<1.0 uM)	A (Fold activation >200%)	O=C(Nc1nccs1)c1cncc2nc(-c3ccc(OC[C@H](O)CO)cc3C(F)F)[nH]c12 [Compound 808]
A (EC1.5<1.0 uM)	A (Fold activation >200%)	Cc1cnc(NC(=O)c2cncc3nc(-c4ccc(OC[C@H](O)CO)cc4C(F)F)[nH]c23)s1 [Compound 809]
A (EC1.5<1.0 uM)	A (Fold activation >200%)	O=C(Nc1ccccn1)c1cncc2nc(-c3ccc(OC[C@H](O)CO)cc3C(F)F)[nH]c12 [Compound 810]
A (EC1.5<1.0 uM)	A (Fold activation >200%)	O=C(Nc1cccc(CN2CCOCC2)n1)c1cccc2[nH]c(-c3ccc(Cl)cc3C(F)F)nc12 [Compound 819]
A (EC1.5<1.0 uM)	A (Fold activation >200%)	O=C(Nc1nccs1)c1cc(F)cc2nc(-c3ccc(Cl)cc3C(F)F)[nH]c12 [Compound 821]
A (EC1.5<1.0 uM)	A (Fold activation >200%)	Cc1cnc(NC(=O)c2cc(F)cc3nc(-c4ccc(Cl)cc4C(F)F)[nH]c23)s1 [Compound 822]
A (EC1.5<1.0 uM)	A (Fold activation >200%)	O=C(Nc1ccccn1)c1cc(F)cc2nc(-c3ccc(Cl)cc3C(F)F)[nH]c12 [Compound 823]
